{"source": "ChEMBL document CHEMBL5032537", "about": "“Synthetic development of sugar amino acid oligomers towards novel podophyllotoxin analogues” (Bioorg Med Chem, 2021)", "key": {"[1]": {"system": "HaCaT", "assay": "Antiproliferative activity against human HaCaT cells assessed as inhibition of cell proliferation measured after 48 hrs by SRB assay", "assay_type": "cell-based"}, "[2]": {"system": "M21", "assay": "Antiproliferative activity against human M21 cells assessed as inhibition of cell proliferation measured after 48 hrs by SRB assay", "assay_type": "functional, cell-based", "conditions": "M21, 48 h"}, "[3]": {"system": "HT-1080", "assay": "Antiproliferative activity against human HT-1080 cells assessed as inhibition of cell proliferation measured after 48 hrs by SRB assay", "assay_type": "functional, cell-based", "conditions": "HT-1080, 48 h"}, "[4]": {"system": "HT-29", "assay": "Antiproliferative activity against human HT-29 cells assessed as inhibition of cell proliferation measured after 48 hrs by SRB assay", "assay_type": "functional, cell-based", "conditions": "HT-29, 48 h"}}}
{"smiles": "COc1cc([C@@H]2c3cc4c(cc3[C@@H](O[C@@H]3O[C@@H]5CO[C@@H](C)O[C@H]5[C@H](O)[C@H]3O)[C@H]3COC(=O)[C@H]23)OCO4)cc(OC)c1O", "note": "[ETOPOSIDE]", "values": [{"measurement": "IC50", "setting": "[1]", "value": 6000, "unit": "nM"}, {"measurement": "IC50", "setting": "[2]", "value": 200, "unit": "nM"}, {"measurement": "IC50", "setting": "[3]", "value": 2000, "unit": "nM"}, {"measurement": "IC50", "setting": "[4]", "value": 9000, "unit": "nM"}]}
{"smiles": "COc1cc([C@@H]2c3cc4c(cc3[C@@H](n3cc(CNC(=O)[C@H]5O[C@H](OC)[C@H](NC(=O)OC(C)(C)C)[C@@H](O)[C@@H]5O)nn3)[C@H]3COC(=O)[C@H]23)OCO4)cc(OC)c1O", "values": [{"measurement": "IC50", "setting": "[1]", "value": "> 1000", "unit": "nM"}, {"measurement": "IC50", "setting": "[2]", "value": "> 1000", "unit": "nM"}, {"measurement": "IC50", "setting": "[3]", "value": "> 1000", "unit": "nM"}, {"measurement": "IC50", "setting": "[4]", "value": "> 1000", "unit": "nM"}]}
{"smiles": "COc1cc([C@@H]2c3cc4c(cc3[C@@H](n3cc(CNC(=O)[C@@H]5O[C@H](OC)[C@H](O)[C@@H](O)[C@@H]5O)nn3)[C@H]3COC(=O)[C@H]23)OCO4)cc(OC)c1O", "values": [{"measurement": "IC50", "setting": "[1]", "value": "> 100000", "unit": "nM"}, {"measurement": "IC50", "setting": "[2]", "value": "> 100000", "unit": "nM"}, {"measurement": "IC50", "setting": "[3]", "value": "> 100000", "unit": "nM"}, {"measurement": "IC50", "setting": "[4]", "value": "> 100000", "unit": "nM"}]}
{"smiles": "COc1cc([C@@H]2c3cc4c(cc3[C@@H](n3cc(CNC(=O)[C@@H]5O[C@H](OC)[C@H](N)[C@@H](O)[C@@H]5O)nn3)[C@H]3COC(=O)[C@H]23)OCO4)cc(OC)c1O", "values": [{"measurement": "IC50", "setting": "[1]", "value": "> 100000", "unit": "nM"}, {"measurement": "IC50", "setting": "[2]", "value": "> 100000", "unit": "nM"}, {"measurement": "IC50", "setting": "[3]", "value": "> 100000", "unit": "nM"}, {"measurement": "IC50", "setting": "[4]", "value": "> 100000", "unit": "nM"}]}
{"smiles": "COc1cc([C@@H]2c3cc4c(cc3[C@@H](N=[N+]=[N-])[C@H]3COC(=O)[C@H]23)OCO4)cc(OC)c1O", "values": [{"measurement": "IC50", "setting": "[1]", "value": 500, "unit": "nM"}, {"measurement": "IC50", "setting": "[2]", "value": 600, "unit": "nM"}, {"measurement": "IC50", "setting": "[3]", "value": 600, "unit": "nM"}, {"measurement": "IC50", "setting": "[4]", "value": 600, "unit": "nM"}]}
{"smiles": "COc1ccc(/C=C\\c2cc(OC)c(OC)c(OC)c2)cc1O", "note": "[COMBRETASTATIN A4]", "values": [{"measurement": "IC50", "setting": "[1]", "value": 3.4, "unit": "nM"}, {"measurement": "IC50", "setting": "[2]", "value": 1.9, "unit": "nM"}, {"measurement": "IC50", "setting": "[3]", "value": 2.6, "unit": "nM"}, {"measurement": "IC50", "setting": "[4]", "value": "> 1000", "unit": "nM"}]}
{"smiles": "COc1cc([C@@H]2c3cc4c(cc3[C@@H](n3cc(CNC(=O)[C@@H]5O[C@H](OC)[C@H](NC(C)=O)[C@@H](O)[C@@H]5O)nn3)[C@H]3COC(=O)[C@H]23)OCO4)cc(OC)c1O", "values": [{"measurement": "IC50", "setting": "[1]", "value": "> 100000", "unit": "nM"}, {"measurement": "IC50", "setting": "[2]", "value": "> 100000", "unit": "nM"}, {"measurement": "IC50", "setting": "[3]", "value": "> 100000", "unit": "nM"}, {"measurement": "IC50", "setting": "[4]", "value": "> 100000", "unit": "nM"}]}
{"smiles": "COc1cc([C@@H]2c3cc4c(cc3[C@@H](O)[C@H]3COC(=O)[C@H]23)OCO4)cc(OC)c1O", "note": "[4'-DEMETHYLEPIPODOPHYLLOTOXIN]", "values": [{"measurement": "IC50", "setting": "[1]", "value": 160, "unit": "nM"}, {"measurement": "IC50", "setting": "[2]", "value": 170, "unit": "nM"}, {"measurement": "IC50", "setting": "[3]", "value": 110, "unit": "nM"}, {"measurement": "IC50", "setting": "[4]", "value": 150, "unit": "nM"}]}
